Experimental data published in patent US20130281313A1, “PROGNOSTIC AND/OR PREDICTIVE BIOMARKERS AND BIOLOGICAL APPLICATIONS THEREOF” (INSTITUT GUSTAVE ROUSSY, priority 2010, published 2013).

Experiments:
Format in all cases: cell-based, human
A549 cells [1] = experiment: Cytofluorometric assessment of cell death (DiOC6(3)/PI co-staining); details: A549 cells; for apoptosis-inducing effect of CDDP (DiOC6(3)/PI co-staining or DNA loss, sub-G1 peak): CDDP irrespective of the presence of PN
Experimental: Unless otherwise specified, chemicals were purchased from Sigma-Aldrich (St. Louis, USA), culture media and supplements for cell culture from Gibco-Invitrogen (Carlsbad, USA) and plasticware from Corning (Corning, USA). […] Orlistat (Xenical®) was obtained from Roche (Basel, Switzerland). […] Undissolved material was removed by two sequential rounds of centrifugation at 12,000 G (5 min, room temperature, RT), supernatants were collected and stored at −80° C. under protection from light until use. In low-throughput experiments, all cell lines were treated with 2.5 mM pyridoxine (PN), exception made for A549 cells that received 5 mM PN.
To avoid depleting the siRNA library of selected sequences, siRNAs for validation experiments were purchased as custom molecules from Sigma-Aldrich. For low-throughput experiments, (see below for the transfection protocols employed in the siRNA screen), siRNA were transfected in A549 cells with Oligofectamine™ reagent (Invitrogen), following the manufacturer's instructions. Transfection with a non-targeting siRNA (siUNR) was employed as a negative control condition. Forty-eight hours after transfection, siRNA-mediated target downregulation was assessed by immunoblotting (see below).
All cytofluorometric determinations were carried out a FACSCalibur or a FACScan cytofluorometer (BD Biosciences, San Jose, USA) equipped with a 70 μm nozzle.
(§1) First line statistical analysis of cytofluorometric results was performed by using the CellQuest™ software (BD Biosciences), by gating on the events characterized by normal forward scatter and side scatter parameters. Apoptosis- and cell cycle-related data were further analyzed with Microsoft Excel (Microsoft Co., Redmond, USA) and statistical significance was assessed by means of two-tailed Student's t test (p<0.05).

A549 cells [2] = experiment: Transcriptome studies (mRNA microarrays)
Experimental: NSCLC A549 cells were treated with 100 μM CDDP, 75 μM C2-CER or 100 μM CdCl2 for 12 h, or with 50 μM CDDP, C2-CER or CdCl2 for 24 h. Thereafter, cells were collected and lysed for RNA extraction of following established procedures {de La Motte Rouge, 2007}. mRNA expression changes were quantified on G4112A 44 k Whole Human Genome Oligo Microarrays (Agilent Technologies, Santa Clara, USA), as previously reported {Castedo, 2006}. mRNA microarrays underwent standardized post-hybridization processing, image acquisition and analysis (see below) {Castedo, 2006}.
Data from microarray experiments were analyzed with the Rosetta Resolver® System (Rosetta Biosoftware, Seattle, USA). The threshold for statistical significance of probe signals (Intensity) was set at p=10^−5. […] For each mRNA, fold change (FC) was then defined as Intensitysample/Intensitycontrol when Intensitysample>Intensitycontrol, or as—(Intensitycontrol/Intensitysample) when Intensitysample<Intensitycontrol. Ratios were calculated as Intensitysample/Intensitycontrol.

A549 cells [3] = experiment: Intracellular levels of CDDP in cell lysates; details: 24 h, 25 μM CDDP alone or with PN and/or GSH, normalized to protein content
Experimental: (E,F) Intracellular levels of CDDP (normalized to protein content) in lysates from untransfected A549 cells (D) or A549 cells transfected with a PDXK-targeting siRNA (E), treated for 24 h with 25 μM CDDP alone or in combination with PN and/or GSH. Mean±SEM (n=6). *=p<0.05 (Studen's t test), as compared to untransfected (D) or siUNR transfected (E) cells treated with CDDP only. n.s.=non significant (Student's t test), as compared to cells treated with the same concentration of GSH (D) or to siPDXK-transfected cells treated with CDDP only (E).

A549 cells [4] = experiment: Targeted metabolomic studies (ATP, ADP, AMP, GSH; RRLC-MS); details: A549 cells incubated for 24 h with 5 mM GSH
Experimental: A549 cells were left untreated or treated with 25 μM CDDP alone or in combination with 5 mM PN, for 24 h. Thereafter, both attached (living) and detached (dying/dead) cells were harvested, washed once in cold PBS and pelleted (800 G for 5 min). Pellets were resuspended in 200 μL deionized water, briefly vortexed and sonicated. 800 μl ice-cold methanol was added, and samples were kept in ice for 15 min, vortexed and centrifuged at 13,000 G for 10 min at 4° C. Supernatants were dried in a SpeedVac drier (Thermo Scientific-Pierce) and stored at −80° C. until analysis. Pellets were resuspended in 150 μL 98:2 water/acetonitrile immediately before analytical determinations (see below).
ATP, ADP, AMP and GSH were quantified on a Rapid Resolution Liquid Chromatography (RRLC) 1200SL system coupled to a 6410 Triple Quadripole (QQQ) mass spectrometer (both from Agilent Technologies). For nucleotides, RRLC was performed on 150×2.1 mm, 3.5 μM Eclipse Plus columns (Agilent Technologies) with water containing 4 mM dimethylhexylamine (DMHA) plus 0.01% (v/v) acetic acid in channel A and acetonitrile in channel B, in gradient mode at a flow rate of 0.2 mL/min: t=0 min 2% B; t=9 min 32% B; t=10 min 95% B; T=12 min 95% B, re-equilibration time=6 min. Mass spectrometry was performed in positive electrospray ionization mode at +4 kV on the QQQ system operating in MRM mode. MRM transitions were optimized with direct infusions of ATP, ADP, and AMP standards with direct infusion, and four transitions were recorded for each compounds. Parent ions were adduct ions of DMHA and also proton adducts:
For GSH, RRLC was performed on a 150×2.1 mm, 3.5 μM Stable Bond AQ column (Agilent Technologies) with water containing 0.2% (v/v) acetic acid in channel A and methanol in channel B, in gradient mode at a flow rate of 0.3 mL/min: t=0 min 2% B; t=8 min 95% B; t=9 min 95% B; re-equilibration time=6 min. Mass spectrometry was performed as above. MRM transitions were optimized with direct infusion of GSH standards.
Data collection and analysis were performed with the MassHunter software (Agilent Technologies).

A549 cells [5] = experiment: Cell cycle distribution (PI staining, cytofluorometry); details: 10 μM CDDP alone or with PN and/or NAC
Experimental: To measure apoptosis-related parameters, living cells were labeled for 30 min at +37° C. with 40 nM 3,3′dihexyloxalocarbocyanine iodide (DiOC6(3), from Molecular Probes-Invitrogen, Eugene, USA), which quantifies the mitochondrial transmembrane potential (Δψm), plus 1 μg/mL propidium iodide (PI), which only accumulates in cells with ruptured plasma membrane {Galluzzi, 2009; Galluzzi, 2008; Galluzzi, 2007}. To assess cell cycle distribution, cells were collected, fixed by gentle vortexing in ice-cold 80% (v/v) ethanol (Carlo Erba Reagents, Milano, Italy) and stained with 50 μg/mL PI in 0.1% (w/v) D-glucose in PBS supplemented with 1 μg/mL (w/v) RNAse A {Mondragon, 2009; Mouhamad, 2007}. All cytofluorometric determinations were carried out a FACSCalibur or a FACScan cytofluorometer (BD Biosciences, San Jose, USA) equipped with a 70 μm nozzle.
as §1

[6] = followed by CDDP, DiOC6(3)/PI co-staining
[7] = 12 h, 100 μM CDDP, 75 μM C2-CER or 100 μM CdCl2, vs untreated cells
[8] = 24 h, 50 μM CDDP, C2-CER or CdCl2, vs untreated cells

## CCCCCCCCCCCCCCC(Br)C(=O)O (stereo not shown) [2-bromopalmitate]
A549 cells [1]; [6]
  epistatic interaction on CDDP-induced cell death, ZDHHC9 inhibition (2-bromopalmitate) combined with IL6R blockade (extracellular antibody): no significant epistatic interaction

## CCCCCCCCCCCCC/C=C/[C@@H](O)[C@H](CO)NC(C)=O [C2-CER, C2-ceramide]
A549 cells [2]; [7]
  Fold change, ADAR (NM_001111) transcript: n.s.
  Fold change, ALDH7AT (NM_001182) transcript: −1.85
  Fold change, CD151 (NM_004357) transcript: n.s.
  Fold change, CLIC1 (NM_001288) transcript: n.s.
  Fold change, COMMO9 (NM_014186) transcript: n.s.
  Fold change, COX5B (NM_001802) transcript: −1.62
  Fold change, COX7C (NM_001867) transcript: −1.33
  Fold change, DHRSX (NM_145177) transcript: n.s.
  Fold change, EBP (NM_006579) transcript: −2.80
  Fold change, EEF2 (NM_001901) transcript: 2.31
  Fold change, FDXK (NM_003681) transcript: −1.89
  Fold change, FN3KRP (NM_024619) transcript: −1.35
  Fold change, HDLBP (NM_005336) transcript: 1.69
  Fold change, HGD (NM_000187) transcript: −2.15
  Fold change, IL6R (NM_000565) transcript: 2.94
  Fold change, KHSRP (NM_003685) transcript: −2.29
  Fold change, LOC389727 (NM_372092) transcript: n.s.
  Fold change, MAT2A (NM_005911) transcript: −3.47
  Fold change, MOL1 (NM_021960) transcript: −1.35
  Fold change, MPP6 (NM_016447) transcript: n.s.
  Fold change, OSTCL (NM_145303) transcript: 2.25
  Fold change, P5MC5 (NM_002805) transcript: −2.20
  Fold change, PLK1S1 (NM_018474) transcript: 1.99
  Fold change, PPM1J (NM_005167) transcript: n.s.
  Fold change, RNF26 (NM_032015) transcript: n.s.
  Fold change, RRAD (NM_004185) transcript: n.s.
  Fold change, SEMA3G (NM_000379) transcript: n.s.
  Fold change, SLC22A16AS (NM_007105) transcript: −1.40
  Fold change, SOCS6 (NM_004232) transcript: n.s.
  Fold change, TMED1 (NM_006858) transcript: n.s.
  Fold change, TRIP4 (NM_016213) transcript: 1.83
  Fold change, UBE2L3 (NM_003347) transcript: −1.48
  Fold change, UBE21 (NM_014176) transcript: −2.92
  Fold change, W282 (NM_018029) transcript: n.s.
A549 cells [2]; [8]
  Fold change, ADAR (NM_001111) transcript: −1.45
  Fold change, ALDH7AT (NM_001182) transcript: −1.98
  Fold change, CD151 (NM_004357) transcript: n.s.
  Fold change, CLIC1 (NM_001288) transcript: n.s.
  Fold change, COMMO9 (NM_014186) transcript: n.s.
  Fold change, COX5B (NM_001802) transcript: −1.61
  Fold change, COX7C (NM_001867) transcript: n.s.
  Fold change, DHRSX (NM_145177) transcript: n.s.
  Fold change, EBP (NM_006579) transcript: −3.16
  Fold change, EEF2 (NM_001901) transcript: 2.62
  Fold change, FDXK (NM_003681) transcript: −1.91
  Fold change, FN3KRP (NM_024619) transcript: −1.67
  Fold change, HDLBP (NM_005336) transcript: 1.99
  Fold change, HGD (NM_000187) transcript: −4.23
  Fold change, IL6R (NM_000565) transcript: 3.52
  Fold change, KHSRP (NM_003685) transcript: −2.23
  Fold change, LOC389727 (NM_372092) transcript: n.s.
  Fold change, MAT2A (NM_005911) transcript: −2.96
  Fold change, MOL1 (NM_021960) transcript: −1.58
  Fold change, MPP6 (NM_016447) transcript: n.s.
  Fold change, OSTCL (NM_145303) transcript: 3.08
  Fold change, P5MC5 (NM_002805) transcript: −2.27
  Fold change, PLK1S1 (NM_018474) transcript: 1.93
  Fold change, PPM1J (NM_005167) transcript: n.s.
  Fold change, RNF26 (NM_032015) transcript: −2.11
  Fold change, RRAD (NM_004185) transcript: 1.55
  Fold change, SEMA3G (NM_000379) transcript: n.s.
  Fold change, SLC22A16AS (NM_007105) transcript: −1.60
  Fold change, SOCS6 (NM_004232) transcript: n.s.
  Fold change, TMED1 (NM_006858) transcript: n.s.
  Fold change, TRIP4 (NM_016213) transcript: 1.65
  Fold change, UBE2L3 (NM_003347) transcript: −1.47
  Fold change, UBE21 (NM_014176) transcript: −4.38
  Fold change, W282 (NM_018029) transcript: n.s.

## N[C@@H](CCC(=O)N[C@@H](CS)C(=O)NCC(=O)O)C(=O)O [GSH, glutathione]
A549 cells [3]
  intracellular accumulation of CDDP: strongly inhibited the accumulation of CDDP within the cells
A549 cells [1]; 25 or 75 μM CDDP plus PN
  protection against the cytotoxic effect of CDDP plus PN: protected cells against the cytotoxic effect of CDDP plus PN
A549 cells [1]
  apoptosis-inducing effect of CDDP (DiOC6(3)/PI co-staining or DNA loss, sub-G1 peak): blocked the apoptosis-inducing effect of CDDP
A549 cells [4]
  intracellular GSH levels upon extracellular GSH: had no significant impact on intracellular GSH levels

## CC(=O)N[C@@H](CS)C(=O)O [NAC, N-acetylcysteine]
A549 cells [1]
  apoptosis-inducing effect of CDDP (DiOC6(3)/PI co-staining or DNA loss, sub-G1 peak): blocked the apoptosis-inducing effect of CDDP
A549 cells [5]
  cell cycle arrest induced by CDDP: failed to reverse the cell cycle arrest induced by CDDP

## Cc1ccc(-c2cn3c4c(sc3n2)CCCC4)cc1 [cyclic pifithrin-α]
A549 cells [1]; [6]
  protection against CDDP, COX inhibition with sodium azide combined with TP53 inhibition with cyclic pifithrin-α: synergistic protection against CDDP
